Experiments:
HepG2 cells = test: SNIPR [pEGFP] transfection of a liver cell line with caveolin inhibitor; assay type: cell-based; conditions: MbC 15 uM, 1 h pretreatment, 48 h
Jurkat cells = test: SNIPR uptake/transfection of a T cell line with endocytosis inhibitors; assay type: cell-based; conditions: MbC 15 uM, 1 h pretreatment
[1] = system: murine bone marrow-derived macrophages; test: In vitro immunogenicity: TNFa release by ELISA; assay type: cell-based, mouse; conditions: positive controls
Description: TNFa release was quantitated by ELISA. Bar charts show mean TNFa release per treatment group (n=3 replicates per treatment group). Error bars indicate SEM. Filled circles indicate mean TNFa release for each individual replicate for each treatment group. Colors of filled circles indicate treatment group.

Substance	Transfection of a liver cell line by pDNA-loaded SNIPR nanoparticles in presence of inhibitor (HepG2 cells)	Transfection of a T cell line by pDNA-loaded SNIPR nanoparticles in presence of inhibitor (Jurkat cells)	TNFa release [1]
Methyl-beta-cyclodextrin [MbC]	abrogated	abrogated	
lipopolysaccharide [LPS]			strongly elicited
